Results reported in ChEMBL document CHEMBL3871295, “N-Propargylpiperidines with naphthalene-2-carboxamide or naphthalene-2-sulfonamide moieties: Potential multifunctional anti-Alzheimer's agents” (Bioorg Med Chem, 2017).
Active and inactive are the calls of the source. No cut-off for these calls is given here.

Tests used:
Cholinesterase = Cholinesterase (Homo sapiens, UniProt P06276)
[1] = molecular target: T1, Amine oxidase [flavin-containing] B (Homo sapiens, UniProt P27338); test: biochemical; assay type: cell-based
T1 sequence (P27338 whole entry): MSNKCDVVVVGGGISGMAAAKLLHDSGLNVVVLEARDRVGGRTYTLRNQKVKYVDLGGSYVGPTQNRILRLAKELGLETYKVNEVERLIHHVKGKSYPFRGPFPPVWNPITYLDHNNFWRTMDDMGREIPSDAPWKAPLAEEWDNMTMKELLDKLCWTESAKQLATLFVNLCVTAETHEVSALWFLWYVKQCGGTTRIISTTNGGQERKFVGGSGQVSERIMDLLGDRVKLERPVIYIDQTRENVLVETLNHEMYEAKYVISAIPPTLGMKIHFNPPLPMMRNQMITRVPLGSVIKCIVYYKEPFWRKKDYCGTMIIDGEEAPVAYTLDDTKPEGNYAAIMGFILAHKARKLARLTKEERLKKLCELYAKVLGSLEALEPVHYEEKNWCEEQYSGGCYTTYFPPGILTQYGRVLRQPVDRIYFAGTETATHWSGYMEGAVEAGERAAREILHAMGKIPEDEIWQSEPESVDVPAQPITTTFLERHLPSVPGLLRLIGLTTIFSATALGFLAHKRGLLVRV

Homo sapiens = organism: Homo sapiens; test: Selectivity ratio of IC50 for human recombinant microsomal MAO-A expressed in baculovirus-infected insect cells to IC50 for human recombinant microsomal MAO-B expressed in baculovirus-infected insect cells
Acetylcholinesterase = molecular target: T2, Acetylcholinesterase (Mus musculus, UniProt P21836)
T2 sequence (P21836 whole entry): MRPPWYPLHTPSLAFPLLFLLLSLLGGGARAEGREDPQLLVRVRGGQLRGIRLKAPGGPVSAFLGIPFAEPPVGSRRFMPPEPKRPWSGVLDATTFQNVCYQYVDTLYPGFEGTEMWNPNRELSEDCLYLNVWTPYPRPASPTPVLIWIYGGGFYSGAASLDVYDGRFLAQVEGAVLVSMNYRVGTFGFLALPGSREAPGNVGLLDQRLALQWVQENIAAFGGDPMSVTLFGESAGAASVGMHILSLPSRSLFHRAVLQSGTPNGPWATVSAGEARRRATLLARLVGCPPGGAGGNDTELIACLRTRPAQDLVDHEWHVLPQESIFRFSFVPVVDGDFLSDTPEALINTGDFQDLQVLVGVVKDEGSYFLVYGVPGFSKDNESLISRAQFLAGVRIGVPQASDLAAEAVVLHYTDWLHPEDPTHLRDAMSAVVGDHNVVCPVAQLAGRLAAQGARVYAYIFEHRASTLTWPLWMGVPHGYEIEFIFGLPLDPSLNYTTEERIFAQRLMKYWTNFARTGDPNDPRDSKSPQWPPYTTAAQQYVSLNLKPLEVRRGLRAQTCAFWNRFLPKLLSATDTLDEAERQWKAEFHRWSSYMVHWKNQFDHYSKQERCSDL

[2] = molecular target: Amyloid-beta precursor protein (Homo sapiens) (UniProt P05067); test: Inhibition of HFIP-pretreated recombinant human amyloid beta (1 to 42) self-induced aggregation at 10 uM measured after 20 hrs for every 300 secs by thioflavin-T based fluorometric assay relative to control
[3] = molecular target: T3, Amine oxidase [flavin-containing] A (Homo sapiens, UniProt P21397); test: biochemical
T3 sequence (P21397 whole entry): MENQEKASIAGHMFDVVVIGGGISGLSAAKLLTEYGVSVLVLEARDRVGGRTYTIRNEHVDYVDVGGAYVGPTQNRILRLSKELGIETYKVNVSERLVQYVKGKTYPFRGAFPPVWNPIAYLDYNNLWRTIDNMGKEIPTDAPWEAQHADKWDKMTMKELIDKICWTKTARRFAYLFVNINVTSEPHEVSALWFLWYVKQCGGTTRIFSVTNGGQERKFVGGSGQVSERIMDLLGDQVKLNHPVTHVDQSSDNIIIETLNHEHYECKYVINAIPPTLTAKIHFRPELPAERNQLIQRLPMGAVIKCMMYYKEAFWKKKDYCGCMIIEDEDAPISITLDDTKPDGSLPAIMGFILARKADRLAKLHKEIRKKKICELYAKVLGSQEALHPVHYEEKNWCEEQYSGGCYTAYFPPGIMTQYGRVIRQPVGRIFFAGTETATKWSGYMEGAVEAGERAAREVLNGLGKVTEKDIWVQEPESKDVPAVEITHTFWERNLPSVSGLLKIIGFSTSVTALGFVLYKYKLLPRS

[4] = PAMPA, pH 7.4
BChE = test: in vitro; details: human, SH-SY5Y cells
SH-SY5Y [5] = test: Neuroprotective activity against amyloid beta (1 to 42) induced cell death in human SH-SY5Y cells assessed as cell viability at 5 uM measured after 48 hrs by MTS assay; assay type: functional, cell-based
[6] = Cytotoxicity against human SH-SY5Y cells measured after 48 hrs by MTS assay; assay type: toxicity, cell-based; details: read-out: LD50
MAO-B = test: Selectivity index, ratio of LD50 for cytotoxicity against human SH-SY5Y cells to IC50 for human recombinant microsomal MAO-B expressed in baculovirus-infected insect cells; assay type: toxicity; details: read-out: Ratio LD50/IC50
[7] = Cytotoxicity against human SH-SY5Y cells at 5 uM measured after 48 hrs by MTS assay; assay type: toxicity, cell-based
[8] = molecular target: T1, Amine oxidase [flavin-containing] B; test: Time-dependent inhibition of human recombinant microsomal MAO-B expressed in baculovirus-infected insect cells preincubated for 5 to 30 mins by IC50 shift assay
[9] = molecular target: T1, Amine oxidase [flavin-containing] B; test: Irreversible inhibition of human recombinant microsomal MAO-B expressed in baculovirus-infected insect cells at 10 times IC50 preincubated for 15 mins followed by dilution to […] and subsequent addition of p-tyramine hydrochloride substrate measured for 30 mins by amplex red assay relative to control; details: 0.5 h
SH-SY5Y [10] = test: Neuroprotective activity against amyloid beta (1 to 42) induced cell death in human SH-SY5Y cells assessed as cell viability at […] measured after 48 hrs by MTS assay; assay type: functional, cell-based
[11] = Cytotoxicity against human SH-SY5Y cells at […] measured after 48 hrs by MTS assay; assay type: toxicity, cell-based

Sequence of Cholinesterase (P06276 whole entry): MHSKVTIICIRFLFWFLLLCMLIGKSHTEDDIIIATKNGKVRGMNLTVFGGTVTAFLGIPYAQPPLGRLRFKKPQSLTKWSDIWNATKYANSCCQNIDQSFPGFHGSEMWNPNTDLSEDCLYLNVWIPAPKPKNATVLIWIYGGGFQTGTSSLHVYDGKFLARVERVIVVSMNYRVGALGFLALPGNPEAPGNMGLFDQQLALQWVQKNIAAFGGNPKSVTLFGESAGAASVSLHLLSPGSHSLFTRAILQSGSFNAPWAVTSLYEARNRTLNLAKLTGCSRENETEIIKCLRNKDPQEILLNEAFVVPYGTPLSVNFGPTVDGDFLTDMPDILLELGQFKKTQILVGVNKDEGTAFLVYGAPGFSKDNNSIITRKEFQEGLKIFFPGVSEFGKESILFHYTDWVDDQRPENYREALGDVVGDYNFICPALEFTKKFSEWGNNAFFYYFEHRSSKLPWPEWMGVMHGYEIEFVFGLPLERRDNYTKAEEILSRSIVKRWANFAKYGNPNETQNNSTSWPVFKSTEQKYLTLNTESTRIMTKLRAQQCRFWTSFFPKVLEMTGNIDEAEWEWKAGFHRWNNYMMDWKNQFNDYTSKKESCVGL
Sequence of Amyloid-beta precursor protein (Homo sapiens) (P05067 whole entry): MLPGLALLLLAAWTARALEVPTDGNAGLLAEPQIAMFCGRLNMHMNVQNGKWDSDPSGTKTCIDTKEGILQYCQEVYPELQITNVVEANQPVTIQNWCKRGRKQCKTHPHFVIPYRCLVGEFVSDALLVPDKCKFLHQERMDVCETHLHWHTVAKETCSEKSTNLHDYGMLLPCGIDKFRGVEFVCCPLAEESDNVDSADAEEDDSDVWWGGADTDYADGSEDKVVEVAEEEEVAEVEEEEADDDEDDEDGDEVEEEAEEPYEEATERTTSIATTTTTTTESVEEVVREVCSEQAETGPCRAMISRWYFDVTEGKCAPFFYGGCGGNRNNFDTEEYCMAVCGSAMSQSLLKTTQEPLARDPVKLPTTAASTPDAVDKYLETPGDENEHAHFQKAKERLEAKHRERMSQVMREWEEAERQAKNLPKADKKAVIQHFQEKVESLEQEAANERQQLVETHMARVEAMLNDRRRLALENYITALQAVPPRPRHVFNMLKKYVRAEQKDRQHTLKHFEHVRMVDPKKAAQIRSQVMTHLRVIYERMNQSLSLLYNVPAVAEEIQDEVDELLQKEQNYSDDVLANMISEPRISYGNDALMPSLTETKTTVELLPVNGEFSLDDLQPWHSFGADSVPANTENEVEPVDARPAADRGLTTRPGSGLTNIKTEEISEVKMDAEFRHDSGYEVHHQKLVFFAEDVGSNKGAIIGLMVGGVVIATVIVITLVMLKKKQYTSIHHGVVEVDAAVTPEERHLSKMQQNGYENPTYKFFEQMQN

Row | SMILES | IC50 (Cholinesterase) [µM] | IC50 [1] [µM] | Ratio IC50 (Homo sapiens) | IC50 (Acetylcholinesterase) [µM] | inhibition [2] [%] | IC50 [3] [µM] | logPeff [4] | selectivity ratio (BChE) | Activity (SH-SY5Y [5]) | CC50 at 48 h [6] [µM] | selectivity ratio (MAO-B) | Activity [7] | TDI [8] | inhibition (INH) [9] [%] | Activity (SH-SY5Y [10]) | Activity [11]
1 | C#CCN1CCCC(CNS(=O)(=O)c2ccc3ccccc3c2)C1 (centres undefined) | 1.22 | > 100 | 1 | > 100 | < 10 | > 100 | – | – | – | – | – | – | – | – | – | –
2 | C#CCN1CCC(CNC(=O)c2ccc3ccccc3c2)CC1 | 54.4 | 72.6 | > 1.38 | > 100 | < 10 | > 100 | – | – | – | – | – | – | – | – | – | –
3 | C#CCN1CCC(CN(CCOC)S(=O)(=O)c2ccc3ccccc3c2)CC1 | 0.384 | > 100 | 1 | > 100 | < 10 | > 100 | – | – | – | – | – | – | – | – | – | –
4 | C#CCN1CCC(CN(CCCOC)C(=O)c2ccc3ccccc3c2)CC1 | 4.59 | > 100 | 1 | > 100 | < 10 | > 100 | – | – | – | – | – | – | – | – | – | –
5 | C#CCN1CCC(CN(CCOC)C(=O)c2ccc3ccccc3c2)CC1 | 4.04 | > 100 | 1 | > 100 | 23.4 | > 100 | – | – | – | – | – | – | – | – | – | –
6 | C#CCN1CCCC(CNC(=O)c2ccc3ccccc3c2)C1 (centres undefined) | 23.4 | 59.3 | > 1.69 | > 100 | < 10 | > 100 | – | – | – | – | – | – | – | – | – | –
7 | CC(=O)[C@H]1CC[C@H]2[C@@H]3CCC4=CC(=O)CC[C@]4(C)[C@H]3CC[C@]12C [PROGESTERONE] | – | – | – | – | – | – | -4 | – | – | – | – | – | – | – | – | –
8 | C#CCN1CCC(CNS(=O)(=O)c2ccc3ccccc3c2)CC1 | 2.6 | 53.9 | > 1.86 | > 100 | < 10 | > 100 | – | 90 | Active | 242 | 4 | Non-Toxic | Active | > 70 | – | –
9 | C#CCN1CCCC(CN(CCCOC)S(=O)(=O)c2ccc3ccccc3c2)C1 (centres undefined) | 0.127 | > 100 | 1 | > 100 | < 10 | > 100 | – | 375 | – | 48.1 | – | – | – | – | Active | Non-Toxic
10 | C#CCN1CCCC(CN(CCOC)S(=O)(=O)c2ccc3ccccc3c2)C1 (centres undefined) | 0.137 | > 100 | 1 | > 100 | < 10 | > 100 | – | – | – | – | – | – | – | – | – | –
11 | C#CCN1CCCC(CN(CCCOC)C(=O)c2ccc3ccccc3c2)C1 (centres undefined) | 8.64 | > 100 | 1 | > 100 | < 10 | > 100 | – | – | – | – | – | – | – | – | – | –
12 | C#CCN1CCCC(CN(CCOC)C(=O)c2ccc3ccccc3c2)C1 (centres undefined) | 3.31 | > 100 | 1 | > 100 | < 10 | > 100 | – | – | – | – | – | – | – | – | – | –
13 | C#CCN1CCC(CN(CCCOC)S(=O)(=O)c2ccc3ccccc3c2)CC1 | 0.281 | > 100 | 1 | > 100 | < 10 | > 100 | – | – | – | – | – | – | – | – | – | –
